Laboratory results taken from patent US9308262B2, “Pharmaceutical composition for administration to nails” (NOVALIQ GMBH, priority 2011, dated 2016).

Assay: Penetration of drug from SFA-based carrier into excised human toe nails
Type: in vitro ADME
Conditions: for depth below the nail surface at which significant tacrolimus concentrations were found: 1 mg/mL tacrolimus in F6H8 with 3.8 wt.-% ethanol, 1,000 min, 40 μm slices
Description: Tacrolimus was dissolved in a liquid carrier comprising F6H8 and 3.8 wt.-% ethanol to obtain a clear solution having a tacrolimus concentration of 1 mg/mL. The composition was used to evaluate the penetration of tacrolimus from an SFA-based carrier into human nails.
Excised human toe nails were obtained and washed in isotonic sodium chloride solution. For each nail, a filter membrane of 16 mm in diameter (2.01 cm^2) was loaded with 30 μL of the test solution, placed onto the nail and incubated for 1,000 min. At the end of the period, the remaining amount of the test solution in the filter and on the nail was collected. From each nail, punch biopsies of 5 mm in diameter (0.1963 cm^2) were obtained. The punch biopsies were frozen and microtomised at −40° C. into 20 horizontal slices of 40 μm thickness. Each slice was extracted and analysed for tacrolimus by HPLC-MS, as were the collected amounts of non-permeated formulation.
The experiment of Example 1 was repeated, except that a solution of ciclopiroxolamine was used instead of a tacrolimus solution. The test composition contained 1% (w/v) of ciclopiroxolamine dissolved in a vehicle of F6H8 and ethanol (85/15 wt.-%).

SMILES	depth distribution of ciclopiroxolamine in the nail matrix (1% (w/v) ciclopiroxolamine in F6H8 and ethanol (85/15 wt.-%), 1,000 min)	fraction of the administered amount of ciclopiroxolamine found in the nail matrix (1% (w/v) ciclopiroxolamine in F6H8 and ethanol (85/15 wt.-%), 1,000 min incubation) [%]	depth below the nail surface at which significant tacrolimus concentrations were found [μm]	depth below the nail surface at which significant tacrolimus concentrations were found (listed as Tacrolimus) [μm]	total amount of tacrolimus found in the nails, relative to the administered dose (30 μL of 1 mg/mL tacrolimus solution in F6H8 with 3.8 wt.-% ethanol, 1,000 min incubation, HPLC-MS)
Cc1cc(C2CCCCC2)n(O)c(=O)c1 [ciclopiroxolamine]	Significant amounts of drug were found throughout the depth of the nail matrix	49.5	–	–	–
C=CC[C@@H]1/C=C(\C)C[C@H](C)C[C@H](OC)[C@H]2O[C@@](O)(C(=O)C(=O)N3CCCC[C@H]3C(=O)O[C@H](/C(C)=C/[C@@H]3CC[C@@H](O)[C@H](OC)C3)[C@H](C)[C@@H](O)CC1=O)[C@H](C)C[C@@H]2OC [tacrolimus]	–	–	400	≥ 400	approx. 9%
